Calls of active or inactive are those of the source.
How the values were obtained:
[1] = molecular target: T1, Short transient receptor potential channel 4 (Mus musculus, UniProt Q9QUQ5); experiment: block of DAMGO-driven TRPC4 calcium entry – cell-based, HEK293 TRPC4/mu-opioid, Fluo-4 calcium, dose response (AID 434942); type: functional;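 also: potency of inhibitors blocking the TRPC4 calcium response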
T1 sequence (Q9QUQ5 whole entry): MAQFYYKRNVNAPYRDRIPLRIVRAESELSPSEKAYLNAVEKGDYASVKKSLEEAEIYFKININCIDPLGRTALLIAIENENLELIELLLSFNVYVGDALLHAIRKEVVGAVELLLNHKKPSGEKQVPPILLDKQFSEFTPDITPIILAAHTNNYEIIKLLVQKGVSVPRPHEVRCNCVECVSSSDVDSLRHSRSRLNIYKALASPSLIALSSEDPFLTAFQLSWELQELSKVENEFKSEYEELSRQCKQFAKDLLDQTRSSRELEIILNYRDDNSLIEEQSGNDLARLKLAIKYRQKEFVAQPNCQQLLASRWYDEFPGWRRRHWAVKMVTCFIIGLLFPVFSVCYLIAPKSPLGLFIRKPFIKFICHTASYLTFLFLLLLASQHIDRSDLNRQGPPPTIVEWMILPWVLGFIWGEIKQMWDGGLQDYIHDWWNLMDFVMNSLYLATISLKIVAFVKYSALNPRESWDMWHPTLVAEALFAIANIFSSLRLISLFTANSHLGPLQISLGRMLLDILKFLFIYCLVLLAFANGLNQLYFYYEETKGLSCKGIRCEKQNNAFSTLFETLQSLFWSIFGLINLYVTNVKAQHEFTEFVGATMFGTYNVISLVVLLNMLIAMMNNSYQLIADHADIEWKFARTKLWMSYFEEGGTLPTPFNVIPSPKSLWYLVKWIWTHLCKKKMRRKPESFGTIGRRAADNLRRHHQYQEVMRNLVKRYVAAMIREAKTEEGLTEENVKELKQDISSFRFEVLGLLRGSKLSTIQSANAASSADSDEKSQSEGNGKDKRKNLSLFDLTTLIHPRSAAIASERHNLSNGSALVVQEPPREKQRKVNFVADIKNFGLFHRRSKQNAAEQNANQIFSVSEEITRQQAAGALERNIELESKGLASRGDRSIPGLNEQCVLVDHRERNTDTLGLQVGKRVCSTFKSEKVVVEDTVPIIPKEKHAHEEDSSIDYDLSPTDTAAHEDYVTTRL

[2] = molecular target: Heat shock protein HSP 90-alpha (Homo sapiens, UniProt P07900); type: functional, organism-based
[3] = molecular target: T2, DNA repair protein RAD52 homolog (Homo sapiens, UniProt P43351); type: functional, biochemical
T2 sequence (P43351 whole entry): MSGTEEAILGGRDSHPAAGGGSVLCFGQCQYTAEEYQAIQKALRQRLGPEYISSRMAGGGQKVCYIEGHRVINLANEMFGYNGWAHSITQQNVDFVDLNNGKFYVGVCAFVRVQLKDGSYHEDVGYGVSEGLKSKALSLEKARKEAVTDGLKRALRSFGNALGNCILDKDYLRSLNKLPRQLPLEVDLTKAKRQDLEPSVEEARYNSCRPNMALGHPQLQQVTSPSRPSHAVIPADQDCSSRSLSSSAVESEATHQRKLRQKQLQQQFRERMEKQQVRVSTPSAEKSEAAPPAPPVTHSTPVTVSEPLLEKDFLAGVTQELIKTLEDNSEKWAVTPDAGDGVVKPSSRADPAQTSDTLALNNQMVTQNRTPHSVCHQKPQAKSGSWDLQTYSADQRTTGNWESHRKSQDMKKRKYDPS

[4] = molecular target: T3, High affinity choline transporter 1 (Homo sapiens, UniProt Q9GZV3); experiment: human choline transporter blockers, potency – cell-based, 5-point CRC, membrane potential dye, dose response (AID 504840); type: functional
T3 sequence (Q9GZV3 whole entry): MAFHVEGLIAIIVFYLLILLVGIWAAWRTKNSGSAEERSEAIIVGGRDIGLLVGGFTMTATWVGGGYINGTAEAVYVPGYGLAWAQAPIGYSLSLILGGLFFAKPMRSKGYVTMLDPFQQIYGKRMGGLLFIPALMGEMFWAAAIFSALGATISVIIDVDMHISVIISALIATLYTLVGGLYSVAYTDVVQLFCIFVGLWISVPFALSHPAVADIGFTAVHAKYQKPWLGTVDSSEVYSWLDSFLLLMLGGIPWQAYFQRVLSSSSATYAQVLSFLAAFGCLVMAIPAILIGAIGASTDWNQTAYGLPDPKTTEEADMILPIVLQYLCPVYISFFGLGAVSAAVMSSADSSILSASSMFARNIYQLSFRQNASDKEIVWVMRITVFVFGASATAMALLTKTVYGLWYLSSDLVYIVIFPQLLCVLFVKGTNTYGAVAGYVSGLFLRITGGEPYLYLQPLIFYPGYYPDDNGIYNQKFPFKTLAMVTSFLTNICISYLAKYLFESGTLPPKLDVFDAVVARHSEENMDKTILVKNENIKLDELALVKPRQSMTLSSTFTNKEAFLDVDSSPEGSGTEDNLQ

[5] = molecular target: T4, Ubiquitin-conjugating enzyme E2 N (Homo sapiens, UniProt P61088); type: functional;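 also: Dose-response confirmation in a TR-FRET assay detecting UBC13-driven polyubiquitin chain formation, inhibition measured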
T4 sequence (P61088 whole entry): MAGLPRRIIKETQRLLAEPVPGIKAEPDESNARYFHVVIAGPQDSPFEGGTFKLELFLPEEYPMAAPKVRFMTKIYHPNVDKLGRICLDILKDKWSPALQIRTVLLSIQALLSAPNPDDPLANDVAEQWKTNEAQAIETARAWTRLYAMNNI

Fatty acid synthase [6] = molecular target: T5, Fatty acid synthase (Homo sapiens, UniProt P49327); experiment: inhibition of human FAS-TE enzyme activity – biochemical, endpoint fluorescence intensity, uHTS hits, dose response (AID 624327); type: functional;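 also: fluorescence from hydrolysis of an O-methyl fluorescein acyl ester substrate by the enzyme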
Fatty acid synthase [7] = molecular target: T5, Fatty acid synthase; experiment: inhibition of human FAS-TE enzyme activity – biochemical, kinetic fluorescence intensity, dose response (AID 624326); type: functional;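 also: rate of fluorescence rise from hydrolysis of a fluorogenic O-methyl fluorescein ester substrate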
[8] = Vero E6 cell cytotoxicity, dose response, cytotoxicity control for non-replicating M. tuberculosis project, secondary assay (AID 492998); type: functional, VeroE6; settings: Vero C1008
[9] = HepG2 cell cytotoxicity, dose response, cytotoxicity control for non-replicating M. tuberculosis project (AID 489018); type: functional; settings: Mycobacterium tuberculosis
[10] = THP-1 cell cytotoxicity, dose response, cytotoxicity control for non-replicating M. tuberculosis project (AID 489025); type: functional
cells = type: functional
Streptococcus = experiment: GAS UMAA2166 growth inhibition – luminescence, BacTiterGlo, counter-screen for streptokinase expression inhibitor project, dose response (AID 1915); type: functional, organism-based;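 also: potency for reduction of bacterial viability or growth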
Cytochrome P450 3A4 = Cytochrome P450 3A4 (Homo sapiens, UniProt P08684);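 also: CYP3A4 tested as one member of a cytochrome P450 panel screen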
Cytochrome P450 2C9 = Cytochrome P450 2C9 (Homo sapiens, UniProt P11712)
[11] = Luminescence Cell-Based Dose Retest to Confirm Inhibitors of Cancer Stem Cells. [Related pubchem assays (depositor defined):AID2717, AID2721]; type: functional; settings: Homo sapiens
Cytochrome P450 2C19 = Cytochrome P450 2C19 (Homo sapiens, UniProt P33261); experiment: Cytochrome panel assay with activity outcomes. Panel member name: p450-cyp2c19 Compounds with AC50 equal or less than 10 uM are considered active; type: functional; settings: read-out: AC50
[12] = test system: Streptococcus sp. 'group A'; experiment: Streptococcus pyogenes SK(-)GAS viability under kanamycin – luminescence, BacTiterGlo, confirmation, counter-screen for streptokinase expression inhibitor project, dose response (AID 1900); type: functional, organism-based
Streptokinase A = molecular target: T6, Streptokinase A (Streptococcus pyogenes serotype M1, UniProt P10520); experiment: viability-normalized secreted streptokinase activity reduction – plasminogen activation absorbance, OD405, dose response (AID 1914); type: functional, Streptococcus pyogenes M1 GAS;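 also: secreted streptokinase activity via plasminogen activation per viability signal from cell pellet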
T6 sequence (P10520 whole entry): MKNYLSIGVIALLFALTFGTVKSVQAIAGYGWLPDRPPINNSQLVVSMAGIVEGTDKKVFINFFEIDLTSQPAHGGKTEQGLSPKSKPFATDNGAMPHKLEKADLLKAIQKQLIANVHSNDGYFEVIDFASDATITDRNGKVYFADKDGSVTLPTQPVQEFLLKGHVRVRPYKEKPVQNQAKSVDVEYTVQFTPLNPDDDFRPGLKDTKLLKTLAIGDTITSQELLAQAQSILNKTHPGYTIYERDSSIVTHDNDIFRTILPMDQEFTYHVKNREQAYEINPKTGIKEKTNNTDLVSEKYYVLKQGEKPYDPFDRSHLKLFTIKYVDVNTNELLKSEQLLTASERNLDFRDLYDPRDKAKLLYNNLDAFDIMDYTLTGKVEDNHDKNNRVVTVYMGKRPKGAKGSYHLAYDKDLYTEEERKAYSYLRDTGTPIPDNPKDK

Genome polyprotein = Genome polyprotein (dengue virus type 2, UniProt P29990); experiment: flavivirus cap methylation enzyme inhibition – biochemical, confirmation dose response, primary screen (AID 588689); type: functional
[13] = molecular target: FAD-linked sulfhydryl oxidase ALR (Homo sapiens, UniProt P55789); experiment: ALR-catalysed DTT oxidation blockers – biochemical, H2O2 detection, luminescence, cherry-pick, dose response (AID 493248)
Vero = experiment: cells; type: functional; settings: Chlorocebus sabaeus

T5 sequence (P49327 whole entry): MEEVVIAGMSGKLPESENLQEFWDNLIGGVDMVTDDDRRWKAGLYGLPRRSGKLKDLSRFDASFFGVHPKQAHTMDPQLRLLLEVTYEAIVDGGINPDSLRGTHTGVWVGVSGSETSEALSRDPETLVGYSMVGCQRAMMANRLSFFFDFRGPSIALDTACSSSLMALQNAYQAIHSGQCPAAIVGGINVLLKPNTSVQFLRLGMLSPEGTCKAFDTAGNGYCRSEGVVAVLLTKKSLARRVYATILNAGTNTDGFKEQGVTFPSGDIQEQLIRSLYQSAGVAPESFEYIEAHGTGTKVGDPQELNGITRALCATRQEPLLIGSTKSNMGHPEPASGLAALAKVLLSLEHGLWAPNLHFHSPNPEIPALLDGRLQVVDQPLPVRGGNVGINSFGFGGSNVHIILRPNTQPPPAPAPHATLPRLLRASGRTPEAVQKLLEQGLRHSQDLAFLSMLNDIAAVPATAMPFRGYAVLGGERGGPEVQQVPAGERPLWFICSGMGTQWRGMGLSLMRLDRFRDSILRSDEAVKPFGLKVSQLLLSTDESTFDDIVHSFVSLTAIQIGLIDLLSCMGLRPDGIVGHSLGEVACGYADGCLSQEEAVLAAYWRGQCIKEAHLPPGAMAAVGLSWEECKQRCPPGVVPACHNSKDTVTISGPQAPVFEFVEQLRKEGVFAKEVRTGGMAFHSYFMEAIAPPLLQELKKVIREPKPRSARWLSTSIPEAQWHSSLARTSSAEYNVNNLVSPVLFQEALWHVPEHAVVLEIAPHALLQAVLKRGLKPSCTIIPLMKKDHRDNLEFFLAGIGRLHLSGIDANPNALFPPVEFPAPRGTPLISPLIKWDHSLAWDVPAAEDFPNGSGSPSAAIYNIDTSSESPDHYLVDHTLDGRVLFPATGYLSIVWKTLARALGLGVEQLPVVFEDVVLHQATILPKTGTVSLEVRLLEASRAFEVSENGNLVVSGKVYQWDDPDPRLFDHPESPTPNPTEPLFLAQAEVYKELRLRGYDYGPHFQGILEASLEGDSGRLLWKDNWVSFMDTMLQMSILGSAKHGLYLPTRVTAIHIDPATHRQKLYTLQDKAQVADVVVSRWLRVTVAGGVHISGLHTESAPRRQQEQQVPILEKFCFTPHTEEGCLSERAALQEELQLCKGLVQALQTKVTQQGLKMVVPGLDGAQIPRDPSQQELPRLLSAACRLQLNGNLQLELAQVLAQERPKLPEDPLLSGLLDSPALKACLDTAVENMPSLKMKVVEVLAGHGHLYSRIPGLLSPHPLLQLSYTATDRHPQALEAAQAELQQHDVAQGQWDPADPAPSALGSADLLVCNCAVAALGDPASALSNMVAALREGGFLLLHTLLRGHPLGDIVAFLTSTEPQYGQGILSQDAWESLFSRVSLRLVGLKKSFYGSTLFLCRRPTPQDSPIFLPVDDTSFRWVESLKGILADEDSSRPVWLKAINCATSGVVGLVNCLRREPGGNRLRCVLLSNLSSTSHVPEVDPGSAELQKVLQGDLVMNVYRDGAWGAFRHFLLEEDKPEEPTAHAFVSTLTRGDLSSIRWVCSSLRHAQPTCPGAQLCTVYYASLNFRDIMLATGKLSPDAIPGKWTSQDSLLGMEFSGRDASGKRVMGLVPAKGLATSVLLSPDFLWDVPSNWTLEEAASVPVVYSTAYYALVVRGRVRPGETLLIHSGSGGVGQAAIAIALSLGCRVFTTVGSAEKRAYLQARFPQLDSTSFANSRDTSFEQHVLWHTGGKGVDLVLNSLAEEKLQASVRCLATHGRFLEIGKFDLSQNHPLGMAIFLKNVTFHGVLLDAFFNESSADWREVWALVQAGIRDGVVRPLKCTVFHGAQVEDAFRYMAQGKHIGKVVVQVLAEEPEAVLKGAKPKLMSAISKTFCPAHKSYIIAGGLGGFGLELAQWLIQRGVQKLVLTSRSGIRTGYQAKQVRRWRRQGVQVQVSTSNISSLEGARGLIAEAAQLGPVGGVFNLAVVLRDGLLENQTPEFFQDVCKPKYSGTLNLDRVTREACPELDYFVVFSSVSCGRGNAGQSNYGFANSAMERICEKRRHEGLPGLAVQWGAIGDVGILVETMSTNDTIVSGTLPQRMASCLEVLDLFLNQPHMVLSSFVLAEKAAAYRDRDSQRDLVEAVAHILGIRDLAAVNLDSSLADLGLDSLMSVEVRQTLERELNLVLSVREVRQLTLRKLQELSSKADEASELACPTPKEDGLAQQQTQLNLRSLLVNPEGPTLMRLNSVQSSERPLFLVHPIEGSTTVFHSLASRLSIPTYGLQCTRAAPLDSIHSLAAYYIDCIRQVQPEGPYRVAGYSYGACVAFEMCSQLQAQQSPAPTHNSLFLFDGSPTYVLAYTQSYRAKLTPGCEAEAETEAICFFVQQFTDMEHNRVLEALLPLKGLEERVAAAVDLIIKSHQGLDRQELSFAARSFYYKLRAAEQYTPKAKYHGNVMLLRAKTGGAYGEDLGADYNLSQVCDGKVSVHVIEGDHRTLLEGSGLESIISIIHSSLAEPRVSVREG
Sequence of Genome polyprotein (P29990 2492-3391 limits assumed): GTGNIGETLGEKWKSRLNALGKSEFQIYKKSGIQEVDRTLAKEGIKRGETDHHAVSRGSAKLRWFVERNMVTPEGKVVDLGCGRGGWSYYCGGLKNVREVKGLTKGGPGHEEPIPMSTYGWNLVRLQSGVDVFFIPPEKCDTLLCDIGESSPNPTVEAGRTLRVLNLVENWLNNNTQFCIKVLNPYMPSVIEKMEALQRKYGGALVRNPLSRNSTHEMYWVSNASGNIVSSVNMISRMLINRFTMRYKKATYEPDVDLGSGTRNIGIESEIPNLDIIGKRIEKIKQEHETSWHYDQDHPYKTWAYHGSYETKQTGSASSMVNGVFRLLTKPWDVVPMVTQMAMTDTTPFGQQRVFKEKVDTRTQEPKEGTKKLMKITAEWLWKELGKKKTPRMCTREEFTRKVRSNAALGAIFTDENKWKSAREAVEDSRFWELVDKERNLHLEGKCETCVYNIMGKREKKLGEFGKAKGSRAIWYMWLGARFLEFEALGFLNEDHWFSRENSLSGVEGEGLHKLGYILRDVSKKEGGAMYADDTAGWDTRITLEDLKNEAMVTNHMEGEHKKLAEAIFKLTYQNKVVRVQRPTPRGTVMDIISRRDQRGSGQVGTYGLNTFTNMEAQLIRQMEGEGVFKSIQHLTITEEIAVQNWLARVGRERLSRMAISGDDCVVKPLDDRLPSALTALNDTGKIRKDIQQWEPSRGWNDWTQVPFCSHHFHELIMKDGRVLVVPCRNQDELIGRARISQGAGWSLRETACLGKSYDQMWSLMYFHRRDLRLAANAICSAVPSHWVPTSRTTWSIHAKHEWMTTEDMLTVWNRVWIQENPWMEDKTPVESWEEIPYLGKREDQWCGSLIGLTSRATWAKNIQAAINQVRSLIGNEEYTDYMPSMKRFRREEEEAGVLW
Sequence of Cytochrome P450 2C9 (P11712 whole entry): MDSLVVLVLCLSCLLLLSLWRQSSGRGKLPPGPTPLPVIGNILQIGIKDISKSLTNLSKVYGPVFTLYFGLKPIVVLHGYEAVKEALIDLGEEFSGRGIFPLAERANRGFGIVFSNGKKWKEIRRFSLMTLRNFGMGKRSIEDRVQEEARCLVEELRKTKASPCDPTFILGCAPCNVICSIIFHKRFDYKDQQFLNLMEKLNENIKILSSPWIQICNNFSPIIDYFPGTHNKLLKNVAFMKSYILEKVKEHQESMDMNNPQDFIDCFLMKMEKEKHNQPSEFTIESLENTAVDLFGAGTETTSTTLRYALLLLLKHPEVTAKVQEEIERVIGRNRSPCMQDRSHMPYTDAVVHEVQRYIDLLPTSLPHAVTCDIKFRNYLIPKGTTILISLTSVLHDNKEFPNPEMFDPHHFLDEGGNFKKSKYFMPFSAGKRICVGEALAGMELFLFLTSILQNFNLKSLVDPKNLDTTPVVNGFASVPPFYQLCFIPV
Sequence of FAD-linked sulfhydryl oxidase ALR (P55789 whole entry): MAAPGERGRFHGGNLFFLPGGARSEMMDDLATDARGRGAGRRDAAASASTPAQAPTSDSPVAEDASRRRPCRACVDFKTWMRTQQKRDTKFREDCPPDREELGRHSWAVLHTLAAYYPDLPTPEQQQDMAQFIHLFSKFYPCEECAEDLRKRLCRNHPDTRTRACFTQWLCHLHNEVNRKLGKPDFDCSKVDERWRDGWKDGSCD
Sequence of Cytochrome P450 3A4 (P08684 whole entry): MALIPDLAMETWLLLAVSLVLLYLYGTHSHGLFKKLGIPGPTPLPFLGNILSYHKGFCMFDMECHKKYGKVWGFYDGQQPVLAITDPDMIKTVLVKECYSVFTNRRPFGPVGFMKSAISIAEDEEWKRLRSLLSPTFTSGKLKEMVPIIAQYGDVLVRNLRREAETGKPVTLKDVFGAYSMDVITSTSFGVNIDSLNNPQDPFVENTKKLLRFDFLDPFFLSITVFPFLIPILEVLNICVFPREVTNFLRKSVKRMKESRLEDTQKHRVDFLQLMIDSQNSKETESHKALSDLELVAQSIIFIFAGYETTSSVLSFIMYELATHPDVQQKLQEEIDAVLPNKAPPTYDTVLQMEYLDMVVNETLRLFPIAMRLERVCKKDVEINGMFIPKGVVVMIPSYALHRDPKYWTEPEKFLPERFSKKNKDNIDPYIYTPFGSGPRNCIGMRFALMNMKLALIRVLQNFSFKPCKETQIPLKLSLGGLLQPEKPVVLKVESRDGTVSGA
Sequence of Cytochrome P450 2C19 (P33261 whole entry): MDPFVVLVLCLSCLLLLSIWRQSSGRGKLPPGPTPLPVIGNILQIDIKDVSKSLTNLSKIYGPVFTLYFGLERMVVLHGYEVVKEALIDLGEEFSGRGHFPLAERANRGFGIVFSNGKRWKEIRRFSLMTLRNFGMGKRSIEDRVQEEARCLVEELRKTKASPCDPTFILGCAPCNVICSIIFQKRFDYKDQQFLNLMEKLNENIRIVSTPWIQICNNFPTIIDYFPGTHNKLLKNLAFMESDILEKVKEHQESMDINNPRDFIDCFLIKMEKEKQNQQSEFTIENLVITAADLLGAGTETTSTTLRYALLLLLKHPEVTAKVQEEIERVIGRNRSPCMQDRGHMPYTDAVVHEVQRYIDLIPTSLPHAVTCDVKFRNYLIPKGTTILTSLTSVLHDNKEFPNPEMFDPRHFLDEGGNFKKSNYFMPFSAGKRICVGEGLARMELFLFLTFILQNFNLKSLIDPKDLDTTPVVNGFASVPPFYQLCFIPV

Cc1ccccc1[N+]1=C2CCCCN2C(O)(c2cccs2)C1 (stereo not drawn)
EC50 [1]: 2.37 µM (active)

COc1ccc(S(=O)(=O)NC2CC3CCC2C3)cc1Br (stereo not drawn)
AC50 [2]: 5.25 µM (active)

CCN1CCN(CCNC(=O)c2ccc3nc(-c4cccc(C)c4)c(-c4cccc(C)c4)nc3c2)CC1
AC50 [3]: 13.5 µM (active) | IC50 [4]: 3.76 µM (active) | IC50 [5]: > 20 µM (inactive)

O=C(COC(=O)CC1CC2CCC1C2)Nc1cc([N+](=O)[O-])ccc1F (stereo not drawn)
IC50 (Fatty acid synthase [6]): 4.15 µM (active) | IC50 (Fatty acid synthase [7]): 3.72 µM (active)

COc1ccc(C(=O)Oc2c(CN3CCOCC3)cc(Cl)c3cccnc23)cc1OC
CC50 [8]: 8.82 µM (active) | CC50 [9]: 15 µM (active) | CC50 [10]: 12.2 µM (active) | IC50 (cells): 34.6 µM (active)

Cc1ccc(S(=O)(=O)c2cnc(-c3ccccc3)nc2N2CCN(C)CC2)cc1
EC50 [1]: 6.68 µM (active)

Cn1ncc2c(Nc3cccc(Cl)c3)nc(Nc3cccc(Cl)c3)nc21
EC50 (Streptococcus): 2.92 µM (active) | AC50 (Cytochrome P450 3A4): 6.31 µM (inconclusive) | AC50 (Cytochrome P450 2C9): 7.94 µM (inconclusive) | AC50 [11]: 2.88 µM (active) | AC50 (Cytochrome P450 2C19): 3.16 µM (inconclusive) | EC50 [12]: 2.68 µM (active) | AC50 [2]: 4.31 µM (active)

O=C(CC1C[C@H](C(=O)N2CCOCC2)[C@@]2(CCC3CCCC3)c3[nH]c4ccccc4c3CCN2C1=O)NCCC1=CCCCC1 (stereo partly drawn)
IC50 (Fatty acid synthase [6]): 22.2 µM (inactive) | IC50 (Fatty acid synthase [7]): 35.1 µM (inactive)

Oc1c2c(nc3c(-c4ccc(Cl)cc4)cnn13)CCC2
EC50 (Streptococcus): 12.3 µM (active) | CC50 [8]: 10.7 µM (active) | CC50 [9]: 12.7 µM (active) | CC50 [10]: 5.23 µM (active) | EC50 [12]: 4.33 µM (active) | EC50 (Streptokinase A): > 150 µM (not active) | IC50 (cells): 12.2 µM (active)

CCOC(=O)C1(CCc2ccccc2)CCN(Cc2ccccn2)CC1
EC50 [1]: 4.22 µM (active) | IC50 (cells): 3.96 µM (active)

Cc1ccc(C(=O)CN(CCC(=O)O)S(=O)(=O)c2ccc([N+](=O)[O-])cc2)cc1
IC50 (Fatty acid synthase [6]): 5.88 µM (active) | IC50 (Fatty acid synthase [7]): 3.55 µM (active)

O=C1Nc2ccc(F)cc2C12Nc1ccccc1-c1nnc(SCc3ccccc3)nc1O2 (stereo not drawn)
IC50 (Genome polyprotein): 46.2 µM (active)

Cc1cccc(-c2cc3nc(C)c(C)c(NCCCn4ccnc4)n3n2)c1
CC50 [8]: > 20 µM (active) | CC50 [9]: 16.4 µM (active) | CC50 [10]: 20.6 µM (active) | IC50 (cells): 9.68 µM (active)

CN1C(=O)/C(=C/c2cccc([N+](=O)[O-])c2)C(=O)N1c1ccccc1
AC50 [13]: 0.533 µM (active) | IC50 (Genome polyprotein): 26.3 µM (active)

COc1ccccc1N1C(=O)NC(=O)/C(=C/c2ccc3c(c2)Cc2ccccc2-3)C1=O
IC50 (Genome polyprotein): 59.4 µM (active)

O=C(CCC(=O)Nc1cccc(Cl)c1)N/N=C/c1cc([N+](=O)[O-])ccc1O
IC50 (Fatty acid synthase [6]): 4.21 µM (active) | IC50 (Fatty acid synthase [7]): 5.71 µM (active)

Cc1ccc(OCC(=O)NNC(=S)NC(=O)c2ccc(Br)o2)c(C)c1
EC50 [1]: 13.3 µM (active) | EC50 (Streptococcus): 1.33 µM (active) | CC50 (Vero): > 25 µM (active) | EC50 [12]: < 0.06 µM (active)

CC(C)Sc1nc2sc3c(c2c2nnc(SCC(=O)NCc4ccco4)n12)CCCC3
EC50 [1]: 3.76 µM (active)

CCc1nc2ccccc2n1Cc1ccccc1OC
EC50 [1]: 10.6 µM (active)
